From paper PMC8237609 (Molecular Metabolism, 2021)

Target: human recombinant LANCL1 (hLANCL1) (Homo sapiens, UniProt O43813)
Assay: [3H]ABA equilibrium saturation binding, nitrocellulose filtration

human recombinant LANCL1 (hLANCL1), sequence (O43813 whole entry): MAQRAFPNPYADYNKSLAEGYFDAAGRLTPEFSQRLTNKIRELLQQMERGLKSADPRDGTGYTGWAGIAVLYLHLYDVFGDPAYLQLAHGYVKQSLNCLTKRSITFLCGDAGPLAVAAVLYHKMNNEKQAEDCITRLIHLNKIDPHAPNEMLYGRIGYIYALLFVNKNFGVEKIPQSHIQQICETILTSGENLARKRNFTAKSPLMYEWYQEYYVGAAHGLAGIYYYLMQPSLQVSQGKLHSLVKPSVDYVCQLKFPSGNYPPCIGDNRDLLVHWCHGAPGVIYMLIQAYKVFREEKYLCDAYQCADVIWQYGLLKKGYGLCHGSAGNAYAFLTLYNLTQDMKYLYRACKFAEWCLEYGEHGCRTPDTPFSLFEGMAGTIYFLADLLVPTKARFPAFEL

CC1=CC(=O)CC(C)(C)C1(O)/C=C/C(C)=C\C(=O)O (racemic) [ABA, (±)-ABA]
Kd: 1 ± 0.4 µM
